From patent publication US20260248852A1, “SYNTHETIC ANTIGEN RECEPTORS FOR COVALENT IMMUNE RECRUITERS AND METHODS AND USES THEREOF” (McMaster University, priority 2022, published 2026)
“Also recorded” adds a separate entry of the source.

Tests used:
293-PSMA cells [1] = assay: CD69 and Nur77 expression of activated ABT cells with 293-PSMA cells; type: cell-based, human; settings: Anti-DNP TAC-T cells; 10 nM and 1 nM
Source text: Cells were stained for surface marker expression via Pacific Blue-conjugated mouse anti-human CD4, and AlexaFluor700-conjugated mouse anti-human CD8a, VioBright FITC-conjugated mouse anti-human NGFR, and anti-huCD69, fixed and permeabilized in Permiabilization concentrate diluted in permeabilization diluent, and stained intracellularly with PE-conjugated mouse anti-mouse Nur77.

293-PSMA cells [2] = assay: Proliferation of adapter functionalized engineered ABT cells (CellTrace Violet); type: cell-based, human
Procedure: Each engineered T cell was also cultured in media alone as a control to compare to. All proliferation assay samples were incubated for 3 days at 37° C. and 5% CO2. Cells were then stained with Live/Dead Fixable Near-IR stain, PerCP-Cy5.5-conjugated mouse anti-human CD8a, Alexa Fluor 700-conjugated mouse anti-human CD4, VioBright FITC-conjugated mouse anti-human NGFR, and BV605-conjugated mouse anti-human CD3. Flow cytometry data were acquired.

[3] = test system: PSMA-positive LNCaP cells; assay: Anti-DNP GDT cell mediated killing of LNCaP cells (Incucyte); type: cell-based, human
Procedure: Measuring T cell mediated killing of LNCaP cells: LNCaP prostate cancer cells, which are prostate specific membrane antigen (PSMA) positive, were engineered with Nuclight Red lentivirus to produce cells with nuclear localized red fluorescence to allow for ease of imaging in these experiments. […] Samples were run in triplicate. The number of LNCaP cells per well at each time point was calculated using the Incucyte cell by cell analysis software and plotted. The area under the growth curve was used as a metric for tumor cell growth for this figure. The larger the area, the greater the tumor cell growth that occurred over the 3 days. The area under the curve for the LNCaP control and each condition were used to calculate the % cytotoxicity.

[4] = test system: PSMA transduced HEK-293 cells; assay: CD69 upregulation of DNP-TAC T cells following stimulation with HEK-293 PSMA cells; type: cell-based, human; settings: DNP-TAC T cells pre labelled 6 hours; co-culture overnight
Procedure: The cells were co-cultured together overnight at 37 degrees. To stop the activation, 20 mM EDTA was added and incubated for 15 minutes. The cells were spun down, media was aspirated, and the cells were stored in 200 μL of cRPMI at 4 degrees prior to staining. The cells were stained with Live-Dead Zombie Aqua, anti-CD3 BV605, anti-CD4 Pacific Blue, anti-CD8 Alexa Fluor 700, anti-NGFR Viobright FITC, and anti-CD69 BV650. Upon staining the cells were run on the Beckman Coulter Cytoflex flow cytometer and analyzed for CD69 expression.

[5] = test system: PSMA transduced HEK-293 cells; assay: IFN-gamma / TNF-alpha production of Anti-DNP TAC ABT cells following stimulation with HEK-293 PSMA cells; type: cell-based, human; settings: Anti-DNP TAC ABT cells prelabelled 6 hours; co-culture 4 hours
Procedure: The cells were co-cultured together for 4 hours at 37 degrees. Golgi plug was added prior to the co-incubation to prevent cytokine secretion. To stop the activation 20 mM EDTA was added and incubated for 15 minutes. The cells were spun down, media was aspirated, and the cells were stored in 200 μL of cRPMI overnight at 4 degrees. The next day, the cells were surface stained with anti-CD4 Pacific Blue, anti-CD8 Alexa Fluor 700, and anti-NGFR Viobright FITC. The cells were then fixed and permeabilized using a fix/perm buffer solution. The cells were then intracellularly stained with anti-CD3 BV605, anti-TNF-alpha PE-CY7, and anti-IFN-gamma APC. Cells were then run on the Beckman Coulter Cytoflex flow cytometer. The percent of cells positive for TNF-alpha and IFN-gamma, as well as cells positive for both were recorded in the table for the separate CD4 and CD8 T-cell populations.

[6] = test system: HEK293-PSMA cells (PSMA expressing); assay: Cytokine production of engineered ABT cells following stimulation with HEK293-PSMA cells; type: cell-based, human
Procedure: Measuring cytokine production following stimulation with HEK-293 cells: In a 96 well round bottom plate, 4E5 HEK293-PSMA cells (PSMA expressing) or HEK293-WT cells were incubated with 4E5 Anti-DNP TAC ABT cells, Anti-DNP DAP12 SAR ABT cells, or Anti-CD28 CAR ABT-cells. […] To stop the activation 20 mM EDTA was added and incubated for 15 minutes. Cells were stained for surface expression of CD4 and CD8, fixed and permeabilized in Cytofix/Cytoperm buffer, and stained with APC-conjugated mouse anti-human interferon-gamma, and FITC-conjugated mouse anti-human tumor necrosis factor-alpha. Cells were then run on the Beckman Coulter Cytoflex flow cytometer. The percent of cells positive for tumor necrosis factor-alpha and interferon-gamma for CD4 and CD8 T-cell populations were graphed separately showing the same overall trends.

[7] = test system: PSMA-positive LNCaP cells; assay: Anti-DNP TAC ABT cell mediated killing of LNCaP cells (Incucyte); type: cell-based, human
Procedure: Measuring T cell mediated killing of LNCaP cells: LNCaP prostate cancer cells, which are prostate specific membrane antigen (PSMA) positive, were engineered with Nuclight Red lentivirus to produce cells with nuclear localized red fluorescence to allow for ease of imaging in these experiments. […] The 3 components were co-cultured for 3 days with 4 images per well taken every 6 hours. Samples were run in triplicate. The number of LnCap cells per well at each time point was calculated using the Incucyte cell by cell analysis software and plotted. The area under the growth curve was used as a metric for tumor cell growth for this figure. The larger the area, the greater the tumor cell growth that occurred over the 3 days. The area under the curve for the LnCap control and each condition were used to calculate the % cytotoxicity.

[8] = test system: Anti-DNP CD28 CAR GDT cells; assay: Labeling time course of Anti-DNP CD28 CAR GDT cells with CIR/(N)CIR; type: binding, human; settings: 10 nM, 100 nM, 1 uM, up to 3 hours
Procedure: (§1) Engineered GDT-cells: PBMCs were seeded at 4E6 cells per well in a 24 well G-Rex plate in the presence of 1 ug/ml zoledronate and 1.5 ng/ml human IL2. Three days later, the cells were incubated overnight in a 24 well non tissue culture treated plate that was pre coated with retronectin and retrovirus supernatant containing viruses encoding either the Anti-DNP DAP12-SAR or the Anti-DNP CD28 CAR. The cells were then transferred back to the G-Rex plate and cultured for a further 11 days at which point, the cell product was collected, CD4/CD8 T cells were removed by magnetic selection and the purified engineered GDT cells were cryopreserved.
(§2) Flow cytometry: To assess the fraction of GDT cells which express the Anti-DNP synthetic antigen receptor, the cells were stained with the following antibodies/fluorophores: Myc biotin, streptavidin PE, vδ2 APC, TCR ab FITC, and CD3 BV605. The CD3 BV605, TCR ab FITC, and Vδ2 APC were used to specifically gate on Vδ2 GDT-cells. The anti-Myc biotin and streptavidin PE secondary were used to assess transduction level.
(§3) For labeling time-course studies, T-cells were incubated with varying concentrations (10 nM, 100 nM, 1 uM) of either DNP-Acyl Imidazole-Desthiobiotin or DNP-Desthiobiotin for different time periods up to 3 hours at room temperature in FACs buffer. […]

[9] = test system: Anti-DNP DAP12-SAR GDT cells; assay: Labeling time course of Anti-DNP DAP12-SAR GDT cells with CIR/(N)CIR; type: binding, human; settings: 10 nM, 100 nM, 1 uM, up to 3 hours
Procedure: as §1, §2, §3

[10] = test system: Anti-DNP TAC T cells (anti-DNP scFv containing T-cells); assay: Labeling of Anti-DNP TAC ABT cells with CIR/(N)CIR, Streptavidin-PE flow cytometry; type: binding, human; settings: 1 uM; for labeling time course (binding): 10 nM, 100 nM, up to 3 hours at room temperature, washed; for covalent binding and labeling of T cells (Streptavidin-PE): Anti-DNP TAC ABT cells, overnight at 4 degrees, washed 3 times
Procedure: (§4) Labeling with CIR/(N)CIR: ABT-cells were labelled overnight at 4 degrees in T-cell media with 1 uM of either DNP-Acyl Imidazole-Desthiobiotin or DNP-Desthiobiotin. DNP-Glycine competitor was also added to some conditions with at 200 uM as a competitor to assess labelling specificity. After the overnight incubation the samples were washed 3 times with FACs buffer to remove any non-covalently bound molecule and stained with Streptavidin-PE to assess labelling. The samples were also stained with near IR Live/Dead, anti-CD4 Pacific Blue, and anti-CD8 Alexa fluor 700 to allow for appropriate gating on live ABT-cells. The samples were assessed for Streptavidin-PE labelling via flow cytometry.
For labeling time-course studies, T-cells were incubated with varying concentrations (10 nM, 100 nM, 1 uM) of either DNP-Acyl Imidazole-Desthiobiotin or DNP-Desthiobiotin for different time periods up to 3 hours at room temperature in FACs buffer. The “0” hour time point was the final time point and accounts for the 5-minute period needed to spike in CIR/(N)CIR and spin down to stop labelling. After adding DNP-Acyl Imidazole-Desthiobiotin or DNP-Desthiobiotin to all time points the cells were washed 3 times and stained for flow cytometry analysis as described above.
as §4, with “either DNP-SuFEx-Desthiobiotin,” for “either”, “αβ T-cells.” for “ABT-cells.”

O=C(O)CC[C@H](NC(=O)N[C@@H](CCCCNC(=O)NCCOCCOCCOCCOCCOCCOCCOCCOC(=O)NCCOCCNC(=O)CNc1ccc([N+](=O)[O-])cc1[N+](=O)[O-])C(=O)O)C(=O)O [PSMA-(N)CIR, DNP-Glutamate-Urea-Lysine, reference compound]
T cell activation (Nur77, CD69) (293-PSMA cells [1]): only the PSMA-CIR could elicit T cell activation
T cell proliferation (percent divided) (293-PSMA cells [2]; Anti-DNP12 SAR T cells, 1 nM or 10 nM): did not proliferate
T cell proliferation (percent divided) (293-PSMA cells [2]; Anti-DNP DAP12 SAR T cells, 1 nM, 10 nM, or 100 nM): little proliferation
T cell proliferation (percent divided) (293-PSMA cells [2]; Anti-DNP DAP12 SAR T cells, 100 nM): modest proliferation
T cell proliferation (percent divided) (293-PSMA cells [2]; Anti-DNP TAC T cells, 1, 10, 100 nM, 3 days): failed to proliferate above background; also recorded: little proliferation
killing of LNCaP cells at limiting concentration ([3]; Anti-DNP CD28 CAR GDT cells, 10 nM or 1 nM adapter): inability of the PSMA-(N)CIR to effectuate killing
tumor killing over a range of concentrations ([3]; Anti-DNP CD28 CAR GDT cells, 15 nM to 250 nM): diminished at lower levels
killing of LNCaP cells ([3]; Anti-DNP CD28 CAR GDT cells, 125 nM adapter): could direct T cell cytotoxicity; also recorded: displayed tumor growth control
killing of LNCaP cells ([3]; Anti-DNP DAP12-SAR GDT cells, 125 nM adapter): unable to direct T cell cytotoxicity
adapter concentration at which tumor killing is observed ([3]; Anti-DNP DAP12 SAR GDT cells): > 125 nM
killing of LNCaP cells ([3]; Anti-DNP DAP12 SAR GDT cells, 250 nM (highest concentration)): only weak killing
killing of LNCaP cells after preincubation and wash ([3]; Anti-DNP DAP12 SAR and Anti-DNP CD28 CAR GDT cells, 1 uM adapter for 6 hours, washed, then co-culture): Only the T cells incubated with the PSMA-CIR retained the ability to kill
killing of LNCaP cells ([3]; CD28 CAR GDT cells, 10 nM adapter): unable to elicit any killing
LNCaP killing over a range of concentrations ([3]; both Anti-DNP DAP12-SAR GDT cells and Anti-DNP CD28 CAR GDT cells, 15.6 nM-250 nM): killing diminished with lower concentrations
T cell activation based on upregulation of CD69 [4]: failed to demonstrated any evidence of activation
production of IFN-gamma and TNF-alpha [5]: failed to demonstrated any evidence of activation
cytokine production ([6]; CD28-CAR T cells, highest concentration (100 nM)): equivalent levels of cytokine production
cytokine production ([6]; DAP12-SAR T cells, 1, 10, 100 nM): some cytokine production was observed with higher concentrations; also recorded: could be activated by both CIR and (N)CIR
cytokine production ([6]; TAC T cells, 1, 10, 100 nM): no cytokine production
killing of LNCaP cells ([7]; E:T 8:1, 15.63 nM to 125 nM, 3 days): unable to direct T cell cytotoxicity; also recorded: did not promote killing of LNCaP cells at any concentration
concentration effective at engaging tumor killing ([7]; E:T 8:1, 3 days): > 125 nM

CC1NC(=O)NC1CCCCCC(=O)NCCOCCOCCOCCOC(=O)n1cnc(CCNC(=O)CNc2ccc([N+](=O)[O-])cc2[N+](=O)[O-])c1 (stereo not shown) [DNP-Acyl Imidazole-Desthiobiotin]
labeling time course (binding) [8]: rapid covalent binding
labeling time course (binding) [9]: rapid covalent binding
labeling time course (binding) [10]: rapid covalent binding
time to maximal loading of DNP-TAC T cells [10]: several hours
time until all Anti-DNP TAC T cells are loaded [10]: ≤ 30 min
covalent binding and labeling of T cells (Streptavidin-PE) [10]: can covalently bind and label

CC1NC(=O)NC1CCCCCC(=O)NCCOCCOC(=O)NCCOCCNC(=O)CNc1ccc([N+](=O)[O-])cc1[N+](=O)[O-] (stereo not shown) [DNP-Desthiobiotin, reference compound]
labeling time course (binding) [8]: minimal binding
labeling time course (binding) [9]: minimal binding
labeling time course (binding) [10]: complete absence of binding
covalent binding and labeling of T cells (Streptavidin-PE) [10]: cannot
